Reference: patent US9801895B1, “Cream formulation with amphotericin B and oil in water useful for topical application to mucous tissue and skin against diseases produced by leishmaniasis” (priority 2013, dated 2017)

Key:
[1] = In vivo toxicity in infected hamsters (body weight, serum analytes, histopathology); design: species or system Golden hamsters (Mesocricetus aerates)
Procedure: (§1) The evaluation of the therapeutic response and toxicity of the cream formulation was carried out in the hamster model for cutaneous leishmaniasis (Robledo et al, 2012) using the Golden hamsters (Mesocricetus aerates). Animals were handled under the same micro and macro environmental conditions. Experimental groups were named accordingly: A. Cream product formulation once a day; B. Cream product formulation twice a day; C. Placebo once a day and D. Placebo twice a day. Additionally, two groups of animals were used as control groups. One of them (E) was used to evaluate meglumine antimoniate as a control medicine at the curative (120 mg/kg day×10 days) and the other group (F) were infected and untreated animals.
Hamsters were weighed weekly from the beginning of the experiment until three months after the end of the treatment.
Effect of Treatments on Serum Levels of BUN, Creatinine and ALT:

[2] = system: Reconstructed Human corneal Epithelium tissue (HCE); format: cell-based
Procedure: In Vitro Eye Irritation (Adapted from OECD Guideline No. 439):
For evaluation of eye irritation (cornea tissue) we used the Acute Eye irritation test using Reconstructed Human corneal Epithelium tissue (HCE).
Each test substance (cream product formulation, placebo, positive and negative controls) was applied topically. After 10 minutes, 2 hours and 24 hours of treatment cell viability was determined using MTT.

[3] = system: reconstructed human tissue model (RHE); format: cell-based
From the text: In Vitro Skin Corrosion Test (Adapted from OECD Guideline No. 431):
To evaluate skin corrosion a reconstructed human tissue model (RHE) in three dimensions was used.

[4] = rat, in vivo
From the text: In Vivo Skin Absorption/Penetration. This Study Followed the OECD Test Guideline 427.
In this method the test substance is applied to the clipped skin of animals and is allowed to remain in contact with the skin for a fixed period of time under a non-occlusive cover to prevent ingestion of the test preparation. At the end of the exposure time the cover is removed and the skin is cleaned with an appropriate cleansing agent, the cover and the cleansing materials are retained for analysis and a fresh cover applied. Animals were exposed to the test preparation during 8 hours. One group was killed at the end of the exposure period. Other group was sacrificed at 48 hours and a third group was sacrificed at 72 hours after the end of exposure. The samples were assayed for concentration of amphotericin B by HPLC and the degree of percutaneous absorption was estimated.
Dosage and treatment groups: 12 animals were used, divided into three groups, which were applied the product under study. Four animals for each time interval: 8 h, 48 h and 72 h.
Environmental conditions and housing: The animals were randomly distributed in individual cages. During the experiment, water management and food was ad libitum. […]

[5] = biphasic elimination described for amphotericin B; cited from earlier work
[6] = system: Trypanosoma cruzi (T. cruzi); settings: given soon after infection at the onset of the acute phase; cited from earlier work
3T3 = test: In vitro 3T3 NRU phototoxicity test (OECD Guideline No 432); format: cell-based
From the text: Phototoxicity/Photosensitisation Potential: The OECD Guideline No 432 was Followed.

L. amazonensis = test: In vivo therapeutic response in the hamster model for cutaneous leishmaniasis; design: species or system Golden hamsters (Mesocricetus aerates); settings: intramuscular, once a day x 10 days, 120 mg/kg day
Procedure: In Vivo Therapeutic Response of Cream Product Formulation on L. amazonensis
as §1
The effectiveness of each treatment was assessed comparing the lesion sizes prior to and after treatments, using the following score system: cure (healing of 100% area and complete disappearance of the lesion); clinical improvement (reducing the size of the lesion in >30% of the area); clinical failure (reduction in the size of the lesion lower than 30% or increase in the size of the lesion); relapse (reactivation of lesion after cure).

Compound: C[C@@H]1[C@H](O)[C@@H](C)/C=C/C=C/C=C/C=C/C=C/C=C/C=C/[C@H](O[C@@H]2O[C@H](C)[C@@H](O)[C@H](N)[C@@H]2O)C[C@@H]2O[C@](O)(C[C@@H](O)C[C@@H](O)[C@H](O)CC[C@@H](O)C[C@@H](O)CC(=O)O[C@H]1C)C[C@H](O)[C@H]2C(=O)O [amphotericin B, Amphotericin B]
- kidney histopathology [1]: no significant changes
- liver histopathology ([1]; one or two applications per day): no lesions or significant changes
- eye (corneal) irritation [2]: no corneal irritation
- skin corrosion [3]: does not show skin corrosion
- amphotericin B in urine [4]: not detected
- elimination half life, last elimination phase [5]: 15 days

Compound: O=C(Cn1ccnc1[N+](=O)[O-])NCc1ccccc1 [benznidazole]
- effectiveness in curing the disease [6]: ~100%

Compound: C[C@H]1c2cccc(O)c2C(=O)C2=C(O)[C@]3(O)C(=O)C(C(N)=O)=C(O)[C@@H](N(C)C)[C@@H]3[C@@H](O)[C@@H]21 [doxycycline]
- phototoxicity classification (3T3): phototoxic
- PIF (3T3; exposure to light): 9.3

Compound: meglumine antimoniate
- efficacy (L. amazonensis): 71%
